Measured values taken from patent US7935525B2, “Inhibition of ATF2 activity to treat cancer” (Mount Sinai School of Medicine, priority 2001, dated 2011).
No end group written: not given here.

Columns and labels:
LU1205 cells = assay: Apoptosis by FACS (hypodiploid fraction); assay type: cell-based, human; parameters: Adriamycin induced programmed cell death, increase compared with control: dose or concentration left out as unconfirmed
Experimental: (§1) Treatment and apoptosis studies of stably transfected melanoma cells. Cells were exposed to UVC at 75 J/m^2 as previously described (Ronai, Z., et al., Oncogene 1998; 16:523-531). SB203580 (1-10 μM) (Calbiochem®, San Diego, Calif.), NCS (50-100 ng/ml) and mitomycin C (MMC) (0.2-1 μM) were used to treat melanoma cells. Flow cytometric analysis was performed on a FACSCalibur™ flow cytometer (Becton Dickinson) using CellQuest™ software as described previously (Nicoletti et al., J. Immunol. Methods 1991; 139:271-279). Cells were pelleted and resuspended in 0.5 ml of hypotonic buffer with 0.1% Triton X-100 containing PI (40 μg/ml) and DNase-free RNase A (1 mg/ml). Cells were incubated at 37° C. for 30 min and analyzed on a FACSCalibur™ flow cytometer (Becton Dickinson). The percentage of cells to the left of the diploid G0/1 peak, characteristic of hypodiploid cells that have lost DNA, was defined as the percentage of apoptotic cells. Analysis was performed with light scatter gating. Surface expression of Fas was determined using anti-Fas-PE antibody (PharMingen® CA) and flow cytometric analysis. Cell surface expression is measured as mean fluorescence intensity (MFI).

[1] = system: human melanocytes (FOM71); assay: Apoptosis by FACS (hypodiploid fraction); assay type: cell-based; settings: melanocytes; SB203580 or NCS (100 ng/ml); 36 h
Experimental: as §1

LU1205 tumor cells = assay: Growth of transplanted LU1205 tumors in mice; assay type: in vivo; settings: single agent: inhibitor injected into tumor, or peptide expressed in tumor cells
Experimental: (§2) Tumor growth and metastasis evaluation in vivo. Cell lines established in culture to constitutively or inducibly express the peptide were injected into mice subcutaneously (S.C.). LU1205, FEMX and SW-1 cells that expressed control or peptide II were trypsinized, resuspended in PBS and injected SC (1×10^6) into 6-7 week old mice in the lower flank. When the tumor reached the size of about 50 mm^3, 5 μM of SB203580 was injected into four areas of the LU1205 tumors every 4 days during a 2-week period. For FEMX tumors UCN-01 (2.5 mg/kg) was fed by gavage twice a day, three times per week for a total of 2 weeks. Tumor growth was monitored every two days. SW-1 cells expressing peptide II under tet-inducible vector were injected SC (1×10^6). When tumors reached a size of about 50 mm^3, the mice received doxycycline in their drinking water ([…]) for a total of 2-4 weeks. At the end of the experiment, the tumors were excised and weighed. The lungs and other organs were subjected to histopathological examination to detect metastatic lesions.

FEMX tumor cells = assay: Growth of transplanted FEMX tumors in mice; assay type: in vivo; settings: single agent: UCN-01 by gavage, or peptide expressed in tumor cells
Experimental: as §2

FEMX melanoma cell line = assay: Colony forming efficiency (CFE) resistance assay; assay type: cell-based, human; settings: peptide-expressing FEMX vs neo control; UV-treatment; 14 days
Experimental: (§3) Radiation resistance. Cells (500 or 1500 per well) were plated in triplicates on 6 well plates, 24 h before treatment (Ronai et al., Oncogene 1998; 16:523-531). In all cases, plating efficiency was pre-determined so that number of cell plated was normalized respectively. Colonies (greater than 50 cells per clone) were stained with crystal violet solution (3% in 10% methanol and PBS), 14 days After treatment. % of CFE in each treatment group was calculated based on total CFE formed in the respective controls (100%).

[2] = system: LU1205 melanoma cell line; assay: Colony forming efficiency (CFE) resistance assay; assay type: cell-based, human
Experimental: as §3

[3] = system: Adriamycin-resistant MCF7 cell line (MCF7-Adr); assay: Apoptosis by FACS (hypodiploid fraction); assay type: cell-based, human; settings: peptide-expressing MCF7-Adr; neo controls 3-fold; 36 h
Experimental: [Worded in the source for another cell line; this cell line is reported under the same test.] as §1

FEMX cells = assay: Apoptosis by FACS (hypodiploid fraction); assay type: cell-based, human; settings: peptide-expressing FEMX; UV-C 75 J/m2; 36 h; neo control 13%
Experimental: as §1

[4] = system: MCF7 breast cancer-derived cell line; assay: Apoptosis by FACS (hypodiploid fraction); assay type: cell-based, human; settings: peptide-expressing MCF7; UV; 36 h
Experimental: [Worded in the source for another cell line; this cell line is reported under the same test.] as §1

[5] = system: WM1552 early-phase melanoma cell line; assay: Apoptosis by FACS (hypodiploid fraction); assay type: cell-based, human; settings: peptide-expressing WM1552; UV-C 75 J/m2; 36 h
Experimental: as §1

[6] = system: 293T human kidney embryonic cells; assay: Apoptosis by FACS (hypodiploid fraction); assay type: cell-based; settings: peptide-expressing 293T; normal growth conditions
Experimental: [Worded in the source for another cell line; this cell line is reported under the same test.] as §1

Fas = assay: Cell surface expression of Fas by FACS; assay type: cell-based, human; settings: peptide-expressing LU1205; control 122
Experimental: as §1

Fas promoter = Fas promoter activity (-460 Fas promoter region); assay type: cell-based, human; settings: peptide-expressing LU1205
ATF2 [7] = assay: ATF2 phosphorylation in peptide-expressing melanoma cells; assay type: cell-based, human; settings: UV-treated; vs control vector cells
[8] = system: ATF2 transcriptional output; assay: Jun-2-Luc activities in peptide IV-expressing cells; assay type: cell-based
ATF2 [9] = assay: GST binding assay; settings: GST pull-down
Experimental: (§4) Electrophoretic mobility shift assays were performed as described. (Ivanov and Ronada, J Biol Chem 1999; 274(20):14079-89). GST binding assays were performed with GST-peptide II as described (Adler et al., Proc Natl Acad Sci USA 1995; 92 10585-9). SW1 cells expressing control vector or peptide II were subjected to FACS analysis following their incubation with antibodies to the cell surface receptor of FAS as described above.

JNK = assay: GST binding assay; settings: GST pull-down; greater binding in extracts of UV-treated cells
Experimental: as §4

COc1cccc2c1C(=O)c1c(O)c3c(c(O)c1C2=O)C[C@@](O)(C(=O)CO)C[C@@H]3O[C@H]1C[C@H](N)[C@H](O)[C@H](C)O1 [Adriamycin®, reference compound]
Adriamycin induced programmed cell death, increase compared with control (LU1205 cells; LU1205, ADR alone): 2 fold

C[S+]([O-])c1ccc(-c2nc(-c3ccncc3)c(-c3ccc(F)cc3)[nH]2)cc1 (centres unmarked) [SB203580, reference compound]
changes in degree of apoptosis [1]: neither NCS nor SB203580 elicited any significant changes
tumor cell growth (LU1205 tumor cells): almost no effect

CN[C@@H]1C[C@H]2O[C@@](C)([C@@H]1OC)n1c3ccccc3c3c4c(c5c6ccccc6n2c5c31)C(=O)N[C@H]4O [UCN-01, 7-hydroxystaurosporine, reference compound]
tumor cell growth (FEMX tumor cells): little effect, if any

neocarzinostatin [NCS]
changes in degree of apoptosis [1]: neither NCS nor SB203580 elicited any significant changes

peptide IV: ATF2 peptide of amino acid residues 150-200, expressed from pcDNA3 with HA-penetratin tag (EVPLAQTAQPTSAIVRPASLQVPNVLLTSSDSSVIIQQAVPSPTSSTVITQ; not fully specified; also: HA-penetratin tag, position not given here; UniProt P15336 150-200, looked up, fragment)
increase in the % of CFE (FEMX melanoma cell line): ≤ 2.5 fold
increase in the resistance to NCS (CFE) ([2]; peptide-expressing LU1205, low dose of NCS): ~2 fold
increase in the % of CFE ([2]; peptide-expressing LU1205 vs neo control, UV-treatment, 14 days): ≤ 2.5 fold
increase in degree of apoptosis over control neo cells given Adriamycin and verapamil (LU1205 cells; peptide-expressing LU1205, Adriamycin + verapamil): 70%
apoptotic fraction of UV-treated cells (LU1205 cells; peptide-expressing LU1205, UV-C 75 J/m2, 36 h, neo control 15%): 10%
increase in the degree of cell death (LU1205 cells; peptide-expressing LU1205, higher doses (10 μM) of SB203580, 36 h): 2 fold
increase in cell death (LU1205 cells; peptide-expressing LU1205, low doses of SB203580, 36 h): did not alter the degree of cell death
increase in apoptosis following UV-treatment [3]: greater than 4 fold
apoptotic fraction of UV-treated cells (FEMX cells): 8%
decrease in the degree of apoptosis after UV-treatment compared with MCF7 neo control cells [4]: 5 fold
sensitization to UV-induced apoptosis [5]: did not cause higher level of apoptosis
increase in the degree of basal apoptosis [6]: 15 fold
cell surface expression of Fas, mean fluorescence intensity (Fas): did not cause major changes
Fas promoter mediated transcription (Fas promoter): decrease in Fas promoter mediated transcription
ATF2 phosphorylation after UV-treatment (ATF2 [7]): higher degree of increase in ATF2 phosphorylation
transcriptional output measured via Jun-2-Luc activities [8]: elevated transcriptional output

B1: amino acid residues 1-115: larger region of the amino-terminal ATF2 domain (amino acid residues 1-115) (protein, UniProt P15336 1-115, looked up, fragment)
chain: MKFKLHVNSARQYKDLWNMSDDKPFLCTAPGCGQRFTNEDHLAVHKHKHEMTLKFGPARNDSVIVADQTPTPTRFLKNCEEVGLFNELASPFENEFKKASEDDIKKMPLDLSPLA
association with ATF2 (ATF2 [9]): weaker association
association with JNK (JNK): equivalent association
